Measurements as given in the supplement of paper PMC9103864.

Tests used:
[1] = system: BMSC (primary human bone marrow mesenchymal stromal cells); assay: absolute EC50 for viability; higher = less sensitive
[2] = system: BMSC (primary human bone marrow mesenchymal stromal cells); assay: drug sensitivity score (DSS); higher = more sensitive

O[C@H]1CC[C@H](Nc2ncc3nc(Nc4c(F)cc(F)cc4F)n([C@H]4CCOC4)c3n2)CC1 [Tanzisertib]
absolute EC50 for viability [1]: > 10000 nM | drug sensitivity score [2]: 0.3

Nc1ccccc1NC(=O)c1ccc(CNC(=O)OCc2cccnc2)cc1 [Entinostat]
absolute EC50 for viability [1]: > 10000 nM | drug sensitivity score [2]: 3.5

COC(=O)c1ccc2c(c1)[nH]c1ncnc(NCCCN3CCCCC3)c12 [UM729]
absolute EC50 for viability [1]: > 10000 nM | drug sensitivity score [2]: 3.3

Cn1cnc2c(F)c(Nc3ccc(Br)cc3Cl)c(C(=O)NOCCO)cc21 [Selumetinib]
absolute EC50 for viability [1]: > 10000 nM | drug sensitivity score [2]: 4.9

CCC(C)n1ncn(-c2ccc(N3CCN(c4ccc(OCC5COC(Cn6cncn6)(c6ccc(Cl)cc6Cl)O5)cc4)CC3)cc2)c1=O (stereo not drawn) [Itraconazole]
absolute EC50 for viability [1]: > 5000 nM | drug sensitivity score [2]: 1.3

O=C(Nc1ccc(OC(F)(F)Cl)cc1)c1cnc(N2CC[C@@H](O)C2)c(-c2cc[nH]n2)c1 [Asciminib]
absolute EC50 for viability [1]: > 1000 nM | drug sensitivity score [2]: 0

Cc1ccc(C(=O)Nc2ccc(CN3CCN(C)CC3)c(C(F)(F)F)c2)cc1C#Cc1cnc2cccnn12 [Ponatinib]
absolute EC50 for viability [1]: > 1000 nM | drug sensitivity score [2]: 4.6

CNC(=O)c1ccccc1Nc1nc(Nc2ccc3c(c2OC)CCC[C@H](N2CCN(CCO)CC2)C3)ncc1Cl
absolute EC50 for viability [1]: 1170 nM | drug sensitivity score [2]: 6.6

CCc1cnn2c(NCc3ccc[n+]([O-])c3)cc(N3CCCC[C@H]3CCO)nc12 [Dinaciclib]
absolute EC50 for viability [1]: > 1000 nM | drug sensitivity score [2]: 8.1

S=C(NCc1ccc2c(c1)OCO2)N1CCN(c2ncnc3c2oc2ccccc23)CC1 [Amuvatinib]
absolute EC50 for viability [1]: > 10000 nM | drug sensitivity score [2]: 0

CCc1nc(C(N)=O)c(Nc2ccc(N3CCC(N4CCN(C)CC4)CC3)c(OC)c2)nc1NC1CCOCC1 [Gilteritinib]
absolute EC50 for viability [1]: > 1000 nM | drug sensitivity score [2]: 0.8

CNC(=O)CN1CCC(Oc2cc3c(Nc4cccc(Cl)c4F)ncnc3cc2OC)CC1 [Sapitinib]
absolute EC50 for viability [1]: > 1000 nM | drug sensitivity score [2]: 0

C[C@H](Nc1ncnc2nc[nH]c12)c1cc2cccc(Cl)c2c(=O)n1-c1ccccc1 [Duvelisib]
absolute EC50 for viability [1]: > 500 nM | drug sensitivity score [2]: 0.6

Cc1cc(Nc2ncc(Cl)c(Nc3ccccc3S(=O)(=O)C(C)C)n2)c(OC(C)C)cc1C1CCNCC1 [Ceritinib]
absolute EC50 for viability [1]: > 2500 nM | drug sensitivity score [2]: 1.3

CCN1CCN(Cc2ccc(Nc3ncc(F)c(-c4cc(F)c5nc(C)n(C(C)C)c5c4)n3)nc2)CC1 [Abemaciclib]
absolute EC50 for viability [1]: > 2500 nM | drug sensitivity score [2]: 0

O=C1NC(=O)[C@@H](c2cn3c4c(cccc24)CCC3)[C@@H]1c1c[nH]c2ccccc12 [Tivantinib]
absolute EC50 for viability [1]: > 1000 nM | drug sensitivity score [2]: 0

Cc1cn(-c2cc(NC(=O)c3ccc(C)c(Nc4nccc(-c5cnccn5)n4)c3)cc(C(F)(F)F)c2)cn1 [Radotinib]
absolute EC50 for viability [1]: > 10000 nM | drug sensitivity score [2]: 0

CCCCCCCCc1ccc(CCC(N)(CO)CO)cc1 [Fingolimod]
absolute EC50 for viability [1]: 3020 nM | drug sensitivity score [2]: 5.8

CN1CCC(CNc2ccc3ncc(-c4cccc(OC(F)(F)F)c4)n3n2)CC1 [SGI-1776]
absolute EC50 for viability [1]: 1400 nM | drug sensitivity score [2]: 9.6

O=C1c2c(O)ccc(O)c2C(=O)c2c(NCCNCCO)ccc(NCCNCCO)c21 [Mitoxantrone]
absolute EC50 for viability [1]: 185 nM | drug sensitivity score [2]: 8

CN(C(=O)c1ccc(F)cc1C(F)(F)F)C1CCN(c2nnc(-c3ccnn3C)c3ccccc23)CC1 [Taladegib]
absolute EC50 for viability [1]: > 10000 nM | drug sensitivity score [2]: 0

CN(C)CC#Cc1ccc(OCCCc2sc(N3CCc4cccc(C(=O)Nc5nc6ccccc6s5)c4C3)nc2C(=O)O)c(F)c1
absolute EC50 for viability [1]: > 10000 nM | drug sensitivity score [2]: 0

Nc1nc(Cl)nc2c1ncn2[C@H]1C[C@H](O)[C@@H](CO)O1 [Cladribine]
absolute EC50 for viability [1]: > 1000 nM | drug sensitivity score [2]: 2.3

O=C(c1cc(Cc2n[nH]c(=O)c3ccccc23)ccc1F)N1CCN(C(=O)C2CC2)CC1 [Olaparib]
absolute EC50 for viability [1]: > 10000 nM | drug sensitivity score [2]: 2.1

CCN(CC)CCNC(=O)c1c(C)[nH]c(/C=C2\C(=O)Nc3ccc(-c4csc(-c5ccccc5)n4)cc32)c1C [Amcasertib]
absolute EC50 for viability [1]: 2780 nM | drug sensitivity score [2]: 5.9

O=c1sn(-c2cccc3ccccc23)c(=O)n1Cc1ccccc1 [Tideglusib]
absolute EC50 for viability [1]: > 3000 nM | drug sensitivity score [2]: 0

CONC(=O)c1ccccc1Nc1cc(Nc2cc(C)nn2C(C)C)ncc1Cl
absolute EC50 for viability [1]: > 1000 nM | drug sensitivity score [2]: 0.1

COc1ccccc1S(=O)(=O)Nc1ccc2c(c1)CN(C)C(=O)N2 [PFI-1]
absolute EC50 for viability [1]: > 30000 nM | drug sensitivity score [2]: 1.9

O=C(NC1CCNCC1)c1n[nH]cc1NC(=O)c1c(Cl)cccc1Cl [AT7519]
absolute EC50 for viability [1]: 462 nM | drug sensitivity score [2]: 12.2

CN(C)CCOc1ccc(/C(=C(/CCCl)c2ccccc2)c2ccccc2)cc1 [Toremifene]
absolute EC50 for viability [1]: > 10000 nM | drug sensitivity score [2]: 0

CO[C@H](C(=O)[C@@H](O)[C@@H](C)O)[C@@H]1Cc2cc3cc(O[C@H]4C[C@@H](O[C@@H]5C[C@@H](O)[C@H](O)[C@@H](C)O5)[C@H](O)[C@@H](C)O4)c(C)c(O)c3c(O)c2C(=O)[C@H]1O[C@H]1C[C@@H](O[C@@H]2C[C@@H](O)[C@@H](O[C@@H]3C[C@](C)(O)[C@H](O)[C@@H](C)O3)[C@@H](C)O2)[C@H](O)[C@@H](C)O1 [Plicamycin]
absolute EC50 for viability [1]: > 10000 nM | drug sensitivity score [2]: 2.1

COc1cccc(-c2ccc(NC(=O)C3=C(C(=O)O)CCC3)c(F)c2)c1 [Vidofludimus]
absolute EC50 for viability [1]: > 10000 nM | drug sensitivity score [2]: 0

CCNc1nc(Nc2cc(F)c(C(=O)N3CCOCC3)cc2OC)ncc1C(F)(F)F [GNE-7915]
absolute EC50 for viability [1]: > 1000 nM | drug sensitivity score [2]: 0

Cc1ccc(-c2cc(C(F)(F)F)nn2-c2ccc(S(N)(=O)=O)cc2)cc1 [Celecoxib]
absolute EC50 for viability [1]: > 10000 nM | drug sensitivity score [2]: 0

CNC(=O)c1cc(COc2nnc(Nc3ccc(Cl)cc3)c3ccoc23)ccn1 [Telatinib]
absolute EC50 for viability [1]: > 10000 nM | drug sensitivity score [2]: 4.2

Cc1nc(NC(=O)N2CCC[C@H]2C(N)=O)sc1-c1ccnc(C(C)(C)C(F)(F)F)c1 [Alpelisib]
absolute EC50 for viability [1]: > 2500 nM | drug sensitivity score [2]: 3.4

CN1CCc2c(c3ccccc3n2Cc2ccc(C(=O)NO)cc2)C1 [Tubastatin A]
absolute EC50 for viability [1]: 9930 nM | drug sensitivity score [2]: 0

N#Cc1ccc(C(c2ccc(C#N)cc2)n2cncn2)cc1 [Letrozole]
absolute EC50 for viability [1]: > 10000 nM | drug sensitivity score [2]: 0

NC1(c2ccc(-c3nc4ccn5c(=O)[nH]nc5c4cc3-c3ccccc3)cc2)CCC1 [MK-2206]
absolute EC50 for viability [1]: > 1000 nM | drug sensitivity score [2]: 5.8

C[C@H]1C[C@@H](n2c(Nc3ccc(OC(F)(F)F)cc3)nc3cc(CCC(=O)O)ccc32)CC(C)(C)C1
absolute EC50 for viability [1]: > 10000 nM | drug sensitivity score [2]: 0

NC[C@@](O)(c1ccc(Cl)cc1)c1ccc(-c2cn[nH]c2)cc1
absolute EC50 for viability [1]: > 10000 nM | drug sensitivity score [2]: 3.3

C/C=C1\NC(=O)[C@H]2CSSCC/C=C/[C@H](CC(=O)N[C@H](C(C)C)C(=O)N2)OC(=O)[C@H](C(C)C)NC1=O [Romidepsin]
absolute EC50 for viability [1]: 9.7 nM | drug sensitivity score [2]: 23.2

CCNCCS(=O)(=O)NC[C@@]1(c2ccccc2)SC(NC(=O)C(C)(C)C)=NN1C(=O)C(C)(C)C [Litronesib]
absolute EC50 for viability [1]: > 1000 nM | drug sensitivity score [2]: 0

Cc1cccc(-c2nn3c(c2-c2ccnc4ccc(C(N)=O)cc24)CCC3)n1 [Galunisertib]
absolute EC50 for viability [1]: > 1000 nM | drug sensitivity score [2]: 0

CCN(CC)CCCC(C)Nc1ccnc2cc(Cl)ccc12 (stereo not drawn) [Chloroquine]
absolute EC50 for viability [1]: 12800 nM | drug sensitivity score [2]: 10.3

CN(C)C[C@@H]1CCn2cc(c3ccccc32)C2=C(C(=O)NC2=O)c2cn(c3ccccc23)CCO1 [Ruboxistaurin]
absolute EC50 for viability [1]: 2420 nM | drug sensitivity score [2]: 7

CCCCCCCCCCCCCCCCCCOP(=O)([O-])OC1CC[N+](C)(C)CC1 [Perifosine]
absolute EC50 for viability [1]: > 2500 nM | drug sensitivity score [2]: 0

CC1(C)OCCn2c1nc1c(N3CCOCC3)nc(-c3cnc(N)nc3)nc12 [GDC-0084]
absolute EC50 for viability [1]: 644 nM | drug sensitivity score [2]: 13.2

CC(C)n1cnc2c(NCCc3ccc(O)cc3)nc(-c3csc4ccccc34)nc21 [StemRegenin 1]
absolute EC50 for viability [1]: > 10000 nM | drug sensitivity score [2]: 0.4

Cn1cc(-c2ccc(F)c(C(F)(F)F)c2)nc1C1CCN(c2ncnc3[nH]ncc23)CC1
absolute EC50 for viability [1]: > 10000 nM | drug sensitivity score [2]: 0

Nc1nc(N)c2nc(-c3cccc(O)c3)c(-c3cccc(O)c3)nc2n1 [TG100-115]
absolute EC50 for viability [1]: > 10000 nM | drug sensitivity score [2]: 2.5

CC(=O)O[C@H]1C(=O)[C@@]2(C)[C@H]([C@H](OC(=O)c3ccccc3)[C@]3(O)C[C@H](OC(=O)[C@H](O)[C@@H](NC(=O)c4ccccc4)c4ccccc4)C(C)=C1C3(C)C)[C@]1(OC(C)=O)CO[C@@H]1C[C@@H]2O [Paclitaxel]
absolute EC50 for viability [1]: > 1000 nM | drug sensitivity score [2]: 2.7

Cn1cc(C[C@@H](N)C(=O)O)c2ccccc21 [1-methyl-D-tryptophan]
absolute EC50 for viability [1]: > 5000 nM | drug sensitivity score [2]: 0

CC(C)(C)c1cc(NC(=O)Nc2ccc(Oc3ccnc4[nH]c(=O)cnc34)cc2F)n(-c2ccccc2)n1
absolute EC50 for viability [1]: > 25000 nM | drug sensitivity score [2]: 0

Nc1cc(F)ccc1NC(=O)/C=C/c1cnn(C/C=C/c2ccccc2)c1 [RGFP966]
absolute EC50 for viability [1]: > 10000 nM | drug sensitivity score [2]: 0.6

COc1cc(N2CCN(C)CC2)ccc1Nc1nccc(-c2cn(C)c3cnccc23)n1 [AZ191]
absolute EC50 for viability [1]: 2710 nM | drug sensitivity score [2]: 8.1

CC1CCC(n2c3cnccc3c3cnc(Nc4ccc5c(n4)CCN(C(=O)CO)C5)nc32)CC1 (stereo not drawn) [AMG-925]
absolute EC50 for viability [1]: > 1000 nM | drug sensitivity score [2]: 0

COc1ccc(CCc2nc3cc(-c4c(C)noc4C)ccc3n2C[C@H](C)N2CCOCC2)cc1Cl [SGC-CBP30]
absolute EC50 for viability [1]: > 25000 nM | drug sensitivity score [2]: 2.1

CC(=O)O[C@]1(C(C)=O)CC[C@H]2[C@@H]3C=C(C)C4=CC(=O)CC[C@]4(C)[C@H]3CC[C@@]21C [Megestrol acetate]
absolute EC50 for viability [1]: > 10000 nM | drug sensitivity score [2]: 0
